Earlier results as cited in patent US20040019012A1, “Ophthalmic antibiotic drug formulations containing a cyclodextrin compound and cetyl pyridinium chloride” (priority 2002, published 2004).

How the values were obtained:
[1] = system: infective gram-positive bacteria; conditions: minimum inhibitory concentration for 90% of the target organisms
[2] = system: gram-positive organisms; conditions: Staphylococcus, Streptococcus, Enterococcus, Bacillus, Corynebacterium, Chlamydia, Neisseria

CC(=O)NC[C@H]1CN(c2ccc(N3CCOCC3)c(F)c2)C(=O)O1 [linezolid, (S)-N-[[3-[3-fluoro-4-(4-morpholinyl)phenyl]-2-oxo-5-oxazolidinyl]methyl]acetamide]
practical limit of concentration in aqueous solution: about 2 mg/ml | MIC90 [1]: about 4 μg/ml | antibacterial activity against gram-positive organisms [2]: strong antibacterial activity
